Reference: ChEMBL document CHEMBL5506021, “Artificial Intelligence-Assisted Optimization of Antipigmentation Tyrosinase Inhibitors: De Novo Molecular Generation Based on a Low Activity Lead Compound” (J Med Chem, 2024)
pKd: −log10 of the molar value. Calls of active or inactive are those of the source. No cut-off for these calls is given here.

Experiments:
[1] = target: T1, Mushroom tyrosinase (Agaricus bisporus, UniProt O42713+Q00024+C7FF04+C7FF05)
Description: Inhibition of mushroom tyrosinase diphenolase activity using L-dopamine as substrate preincubated for 10 mins followed by substrate addition and measured after 20 mins by absorbance based assay

[2] = target: T1, Mushroom tyrosinase; remark: listed apart in the source
Description: Inhibition of mushroom tyrosinase monophenolase activity using L-tyrosine as substrate preincubated for 10 mins followed by substrate addition and measured after 20 mins by absorbance based assay

[3] = Metabolic stability in human plasma assessed as compound remaining at 100 uM incubated for 120 mins by LC/MS analysis; format: ADME, cell-free; conditions: read-out: Stability
[4] = Metabolic stability in human plasma assessed as half-life at 100 uM incubated for 120 mins by LC/MS analysis; format: ADME, cell-free
[5] = Metabolic stability in human liver microsomes assessed as compound remaining at 1.5 uM incubated for 45 mins by LC/MS analysis; format: ADME, Microsome; conditions: read-out: Stability
[6] = Metabolic stability in human liver microsomes assessed as half-life at 1.5 uM preincubated for 5 mins followed by NADPH addition and measured after 10 mins by LC/MS analysis; format: ADME, Microsome; conditions: time 15 min
[7] = Metabolic stability in human liver microsomes assessed as intrinsic clearance at 1.5 uM preincubated for 5 mins followed by NADPH addition and measured after 10 mins by LC/MS analysis; format: ADME, Microsome; conditions: time 15 min, read-out: CLH
[8] = Metabolic stability in human liver microsomes assessed as hepatic extraction ratio at 1.5 uM preincubated for 5 mins followed by NADPH addition and measured after 10 mins by LC/MS analysis; format: ADME, Microsome; conditions: time 15 min, read-out: ERH
[9] = target: T2, Tyrosinase (Homo sapiens, UniProt P14679); experiment: Binding affinity to tyrosinase (unknown origin) assessed as dissociation constant by SPR analysis
T2 sequence (P14679 whole entry): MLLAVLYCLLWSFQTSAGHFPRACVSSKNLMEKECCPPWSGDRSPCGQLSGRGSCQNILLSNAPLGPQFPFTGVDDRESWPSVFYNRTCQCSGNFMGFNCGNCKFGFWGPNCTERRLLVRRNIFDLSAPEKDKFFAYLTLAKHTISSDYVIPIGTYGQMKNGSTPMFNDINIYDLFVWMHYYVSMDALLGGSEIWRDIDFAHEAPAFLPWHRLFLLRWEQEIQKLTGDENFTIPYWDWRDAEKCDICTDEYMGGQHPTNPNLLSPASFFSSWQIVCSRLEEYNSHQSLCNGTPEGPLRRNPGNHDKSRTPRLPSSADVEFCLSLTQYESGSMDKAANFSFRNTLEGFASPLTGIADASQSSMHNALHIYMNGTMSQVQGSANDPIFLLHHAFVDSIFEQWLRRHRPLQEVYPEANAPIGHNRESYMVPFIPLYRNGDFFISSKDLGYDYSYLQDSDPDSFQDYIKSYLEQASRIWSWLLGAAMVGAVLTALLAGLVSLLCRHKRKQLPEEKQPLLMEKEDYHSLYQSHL

[10] = zebrafish, in vivo, 45 h
Description: Toxicity in wildtype AB zebrafish assessed as minimum toxic concentration measured after 45 hrs

[11] = Toxicity in wildtype AB zebrafish assessed as effect on phenotype at 1 to 5 microM incubated for 45 hrs by anatomic microscopic analysis; parameters: species or system Danio rerio; conditions: in vivo, dose 1-5 µM
[12] = Toxicity in wildtype AB zebrafish assessed as effect on phenotype at 10 to 50 microM incubated for 45 hrs by anatomic microscopic analysis; parameters: species or system Danio rerio; conditions: in vivo, dose 10-50 µM
[13] = Toxicity in wildtype AB zebrafish assessed as effect on growth at 1 to 5 microM incubated for 45 hrs by anatomic microscopic analysis; parameters: species or system Danio rerio; conditions: in vivo, dose 1-5 µM
[14] = Toxicity in wildtype AB zebrafish assessed as effect on growth at 10 to 50 microM incubated for 45 hrs by anatomic microscopic analysis; parameters: species or system Danio rerio; conditions: in vivo, dose 10-50 µM
[15] = organism: Danio rerio; experiment: Anti-pigmentation activity in wildtype AB zebrafish assessed as depigmentation at 5 uM incubated for 45 hrs by anatomical microscopic analysis; format: functional
[16] = organism: Danio rerio; experiment: Anti-pigmentation activity in wildtype AB zebrafish assessed as melanin looseness in head at 5 uM incubated for 45 hrs by anatomical microscopic analysis; format: functional, organism-based
[17] = organism: Danio rerio; experiment: Anti-pigmentation activity in wildtype AB zebrafish assessed as melanin reduction in head at 5 uM incubated for 45 hrs by anatomical microscopic analysis; format: functional, organism-based

SMILES	IC50 [1]	IC50 [2]	other results
Cc1cccc(C)c1NC(=O)CCCN1CCCN(C/C=C/c2ccccc2)CC1	> 800 µM	248.7 µM	–
Cc1ccc(/C=C/CN2CCN(C(=O)CCC(=O)Nc3ccccc3O)CC2)cc1	31.01 µM	11.49 µM	remaining at 2 h, 100 µM [3]: 94.6%; half-life at 100 µM [4]: > 120 min; remaining at 0.75 h, 1.5 µM [5]: 28.1%; half-life at 1.5 µM [6]: 24.6 min; CLint scaled at 1.5 µM [7]: 65.2 mL/min/kg; hepatic extraction ratio at 10 min, 1.5 µM [8]: 0.759; pKd [9]: 3.70; MTC [10]: 5 µM
Cc1ccc(/C=C/CN2CCN(C(=O)CCC(=O)Nc3cccc(O)c3)CC2)cc1	> 800 µM	217.17 µM	–
Cc1ccc(NC(=O)CN2CCCN(C/C=C/c3ccccc3)CC2)c(C)c1	> 800 µM	> 800 µM	–
Cc1cccc(C)c1NC(=O)CN1CCN(C/C=C/c2ccccc2)CC1	244.6 µM	88.01 µM	–
Cc1cc(Cl)ccc1NC(=O)CN1CCCN(C/C=C/c2ccccc2)CC1	> 800 µM	> 800 µM	–
Cc1ccc(NC(=O)CCN2CCCN(C/C=C/c3ccccc3)CC2)c(C)c1	465.1 µM	255.4 µM	–
Cc1ccc(C)c(NC(=O)CCC(=O)N2CCCN(C/C=C/c3ccccc3)CC2)c1	> 800 µM	393.05 µM	–
Cc1ccc(NC(=O)CCC(=O)N2CCCN(C/C=C/c3ccccc3)CC2)c(C)c1	> 800 µM	681.3 µM	–
Cc1cc(C)c(NC(=O)CCN2CCCN(C/C=C/c3ccccc3)CC2)c(C)c1	> 800 µM	465.1 µM	–
Cc1ccc(C)c(NC(=O)CCN2CCCN(C/C=C/c3ccccc3)CC2)c1	555.4 µM	234.2 µM	–
Cc1ccccc1NC(=O)CN1CCCN(C/C=C/c2ccccc2)CC1	> 800 µM	> 800 µM	–
Cc1ccc(C)c(NC(=O)CC(=O)N2CCCN(C/C=C/c3ccccc3)CC2)c1	> 800 µM	744.95 µM	–
Cc1ccc(/C=C/CN2CCN(C(=O)CCC(=O)Nc3ccccc3C)CC2)cc1	204.3 µM	173 µM	–
Cc1ccc(/C=C/CN2CCN(C(=O)CCCC(=O)Nc3ccccn3)CC2)cc1	329.55 µM	192.93 µM	–
Cc1ccc(NC(=O)CCC(=O)Nc2cnn(C/C=C/c3ccccc3)c2)c(C)c1	> 800 µM	> 800 µM	–
Cc1ccc(NC(=O)CC(=O)N2CCCN(C/C=C/c3ccccc3)CC2)c(C)c1	> 800 µM	732.35 µM	–
Cc1ccc(C)c(NC(=O)CN2CCCN(C/C=C/c3ccccc3)CC2)c1	> 800 µM	> 800 µM	–
Cc1ccc(NC(=O)CCN2CCCN(C/C=C/c3ccccc3)CC2)cc1	536.05 µM	338.4 µM	–
Cc1ccc(NC(=O)CCCN2CCN(C/C=C/c3ccccc3)CC2)c(C)c1	> 800 µM	652.9 µM	Activity [11]: Non-Toxic; Activity [12]: Toxic; Activity [13]: Non-Toxic; Activity [14]: Toxic; Activity [15]: 9.98%; Activity [16]: Active; Activity [17]: Active; MTC [10]: 50 µM
Cc1ccc(NC(=O)CCN2CCCN(C/C=C/c3ccccc3)CC2)cc1C	> 800 µM	> 800 µM	–
Cc1ccc(F)cc1NC(=O)CCN1CCCN(C/C=C/c2ccccc2)CC1	> 800 µM	639.85 µM	–
Cc1ccc(/C=C/CN2CCN(C(=O)CCC(=O)Nc3ccc(O)cc3)CC2)cc1	131.77 µM	40.34 µM	–
